Key:
Carbonic anhydrase 7 = Carbonic anhydrase 7 (Homo sapiens, UniProt P43166)
Carbonic anhydrase 13 = Carbonic anhydrase 13 (Mus musculus, UniProt Q9D6N1)
[1] = target: Carbonic anhydrase 5A, mitochondrial (Homo sapiens, UniProt P35218)
Carbonic anhydrase 14 = Carbonic anhydrase 14 (Homo sapiens, UniProt Q9ULX7)
Carbonic anhydrase 3 = Carbonic anhydrase 3 (Homo sapiens, UniProt P07451)
[2] = target: Carbonic anhydrase 5B, mitochondrial (Homo sapiens, UniProt Q9Y2D0)
Carbonic anhydrase 6 = Carbonic anhydrase 6 (Homo sapiens, UniProt P23280)
Carbonic anhydrase 15 = target: T1, Carbonic anhydrase 15 (Mus musculus, UniProt Q99N23)
T1 sequence (Q99N23 whole entry): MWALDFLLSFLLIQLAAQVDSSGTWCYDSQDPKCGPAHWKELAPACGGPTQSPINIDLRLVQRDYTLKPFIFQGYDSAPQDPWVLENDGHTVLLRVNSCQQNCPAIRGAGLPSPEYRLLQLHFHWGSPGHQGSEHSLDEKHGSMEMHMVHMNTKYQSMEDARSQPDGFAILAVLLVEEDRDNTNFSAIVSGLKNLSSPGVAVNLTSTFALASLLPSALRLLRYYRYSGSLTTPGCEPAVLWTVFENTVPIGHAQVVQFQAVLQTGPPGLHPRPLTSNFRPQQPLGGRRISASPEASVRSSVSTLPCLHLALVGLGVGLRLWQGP

Carbonic anhydrase 12 = Carbonic anhydrase 12 (Homo sapiens, UniProt O43570)
Carbonic anhydrase 1 = Carbonic anhydrase 1 (Homo sapiens, UniProt P00915)
Carbonic anhydrase 9 = Carbonic anhydrase 9 (Homo sapiens, UniProt Q16790)
Carbonic anhydrase 4 = Carbonic anhydrase 4 (Homo sapiens, UniProt P22748)
Carbonic anhydrase 2 = Carbonic anhydrase 2 (Homo sapiens, UniProt P00918)

Chain of Carbonic anhydrase 1 (P00915 whole entry): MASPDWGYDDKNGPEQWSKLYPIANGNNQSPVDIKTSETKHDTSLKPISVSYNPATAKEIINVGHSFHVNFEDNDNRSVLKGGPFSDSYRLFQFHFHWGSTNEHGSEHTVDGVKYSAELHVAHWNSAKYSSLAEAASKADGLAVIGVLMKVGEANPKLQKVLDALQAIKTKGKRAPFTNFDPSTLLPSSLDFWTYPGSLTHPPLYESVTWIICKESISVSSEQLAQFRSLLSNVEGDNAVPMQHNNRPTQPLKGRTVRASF
Chain of Carbonic anhydrase 6 (P23280 whole entry): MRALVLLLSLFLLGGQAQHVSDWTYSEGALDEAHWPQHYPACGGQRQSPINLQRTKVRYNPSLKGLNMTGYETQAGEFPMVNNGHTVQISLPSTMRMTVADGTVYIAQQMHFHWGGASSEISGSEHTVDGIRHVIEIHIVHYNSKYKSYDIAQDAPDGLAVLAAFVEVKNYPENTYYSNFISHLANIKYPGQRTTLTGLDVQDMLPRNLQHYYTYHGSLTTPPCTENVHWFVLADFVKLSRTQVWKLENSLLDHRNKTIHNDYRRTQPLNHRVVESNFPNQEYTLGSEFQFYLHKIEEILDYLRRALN
Chain of Carbonic anhydrase 5A, mitochondrial (P35218 whole entry): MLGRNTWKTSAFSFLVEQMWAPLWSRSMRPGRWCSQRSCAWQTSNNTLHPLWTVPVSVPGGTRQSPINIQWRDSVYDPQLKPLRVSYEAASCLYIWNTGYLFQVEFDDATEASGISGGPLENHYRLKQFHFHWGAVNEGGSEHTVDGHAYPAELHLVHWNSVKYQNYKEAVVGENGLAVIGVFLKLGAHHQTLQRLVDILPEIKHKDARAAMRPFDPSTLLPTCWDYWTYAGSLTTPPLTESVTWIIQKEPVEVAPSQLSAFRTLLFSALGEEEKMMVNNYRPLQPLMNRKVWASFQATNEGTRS
Chain of Carbonic anhydrase 7 (P43166 whole entry): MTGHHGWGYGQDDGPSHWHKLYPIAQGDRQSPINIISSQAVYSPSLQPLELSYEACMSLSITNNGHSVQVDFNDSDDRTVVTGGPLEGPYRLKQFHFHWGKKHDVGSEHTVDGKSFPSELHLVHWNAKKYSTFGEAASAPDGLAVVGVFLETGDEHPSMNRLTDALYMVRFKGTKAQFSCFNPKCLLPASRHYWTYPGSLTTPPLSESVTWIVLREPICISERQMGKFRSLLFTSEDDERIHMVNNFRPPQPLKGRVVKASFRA
Chain of Carbonic anhydrase 4 (P22748 whole entry): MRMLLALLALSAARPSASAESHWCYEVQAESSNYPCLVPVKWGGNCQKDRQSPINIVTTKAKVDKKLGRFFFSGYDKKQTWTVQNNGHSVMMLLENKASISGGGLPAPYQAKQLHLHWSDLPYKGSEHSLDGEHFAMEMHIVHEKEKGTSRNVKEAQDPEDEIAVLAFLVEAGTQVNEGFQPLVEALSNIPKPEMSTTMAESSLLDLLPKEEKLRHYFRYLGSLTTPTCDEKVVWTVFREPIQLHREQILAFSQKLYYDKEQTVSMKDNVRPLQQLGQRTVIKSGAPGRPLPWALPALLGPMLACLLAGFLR
Chain of Carbonic anhydrase 14 (Q9ULX7 whole entry): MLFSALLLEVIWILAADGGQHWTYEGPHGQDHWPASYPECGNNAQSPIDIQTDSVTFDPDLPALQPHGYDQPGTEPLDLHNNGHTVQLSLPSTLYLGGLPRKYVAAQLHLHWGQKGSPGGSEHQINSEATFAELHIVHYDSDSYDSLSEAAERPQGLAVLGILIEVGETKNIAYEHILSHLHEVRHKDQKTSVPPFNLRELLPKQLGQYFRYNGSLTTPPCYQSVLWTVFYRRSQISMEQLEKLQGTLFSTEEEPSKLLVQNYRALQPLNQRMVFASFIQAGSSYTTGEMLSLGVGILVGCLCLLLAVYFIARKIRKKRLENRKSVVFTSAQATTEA
Chain of Carbonic anhydrase 13 (Q9D6N1 whole entry): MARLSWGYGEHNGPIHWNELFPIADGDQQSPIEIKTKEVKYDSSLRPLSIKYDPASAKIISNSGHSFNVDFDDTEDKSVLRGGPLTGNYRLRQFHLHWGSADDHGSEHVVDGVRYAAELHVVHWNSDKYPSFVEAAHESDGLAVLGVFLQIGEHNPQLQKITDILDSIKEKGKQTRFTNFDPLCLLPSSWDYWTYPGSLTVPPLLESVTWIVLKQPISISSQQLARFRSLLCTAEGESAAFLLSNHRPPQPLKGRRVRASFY
Chain of Carbonic anhydrase 12 (O43570 whole entry): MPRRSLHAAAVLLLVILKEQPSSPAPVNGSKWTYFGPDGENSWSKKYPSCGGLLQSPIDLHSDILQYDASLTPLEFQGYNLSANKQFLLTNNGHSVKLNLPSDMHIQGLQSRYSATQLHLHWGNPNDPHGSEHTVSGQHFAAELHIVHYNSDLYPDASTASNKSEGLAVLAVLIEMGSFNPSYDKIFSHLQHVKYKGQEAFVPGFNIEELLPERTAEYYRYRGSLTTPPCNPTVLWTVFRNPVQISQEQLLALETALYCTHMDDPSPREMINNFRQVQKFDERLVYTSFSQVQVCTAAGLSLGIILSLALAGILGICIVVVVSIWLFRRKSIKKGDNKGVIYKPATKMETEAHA
Chain of Carbonic anhydrase 3 (P07451 whole entry): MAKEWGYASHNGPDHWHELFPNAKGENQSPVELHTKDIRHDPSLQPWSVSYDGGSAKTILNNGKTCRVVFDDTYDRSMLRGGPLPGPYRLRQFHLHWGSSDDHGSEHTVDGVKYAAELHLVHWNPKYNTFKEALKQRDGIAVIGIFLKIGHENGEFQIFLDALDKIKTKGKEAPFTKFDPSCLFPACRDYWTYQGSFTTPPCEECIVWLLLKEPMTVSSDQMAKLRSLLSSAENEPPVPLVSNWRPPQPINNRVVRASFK
Chain of Carbonic anhydrase 5B, mitochondrial (Q9Y2D0 whole entry): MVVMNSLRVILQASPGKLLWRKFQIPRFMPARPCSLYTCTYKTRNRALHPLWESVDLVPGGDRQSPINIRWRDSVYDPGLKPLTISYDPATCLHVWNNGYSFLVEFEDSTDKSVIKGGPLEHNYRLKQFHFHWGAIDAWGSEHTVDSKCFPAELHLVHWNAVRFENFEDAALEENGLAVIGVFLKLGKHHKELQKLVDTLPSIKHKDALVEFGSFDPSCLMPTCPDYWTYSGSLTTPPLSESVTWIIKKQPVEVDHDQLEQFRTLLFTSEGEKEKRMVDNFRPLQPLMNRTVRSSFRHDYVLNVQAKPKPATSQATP

Structure (SMILES) | Ki (Carbonic anhydrase 7) [µM] | Ki (Carbonic anhydrase 13) [µM] | Ki [1] [µM] | Ki (Carbonic anhydrase 14) [µM] | Ki (Carbonic anhydrase 3) [µM] | Ki [2] [µM] | Ki (Carbonic anhydrase 6) [µM] | Ki (Carbonic anhydrase 15) [µM] | Ki (Carbonic anhydrase 12) [µM] | Ki (Carbonic anhydrase 1) [µM] | Ki (Carbonic anhydrase 9) [µM] | Ki (Carbonic anhydrase 4) [µM] | Ki (Carbonic anhydrase 2) [µM]
O=C(NCCNCCNCCNC(=O)C(F)(F)F)C(F)(F)F | > 500 | > 500 | > 500 | > 500 | > 500 | > 500 | > 500 | > 500 | > 500 | > 500 | > 500 | > 500 | > 500
NCCNCCN | 12.1 | 11.5 | 110 | 10.1 | 117 | 11 | 11.5 | 105 | 11.4 | 415 | 10.6 | 116 | 118
NCCNCCNCCN [TRIENTINE] | 45 | 52 | 38 | 12.1 | 48 | 49 | 43 | 59 | 57 | 100 | 39 | 35 | 64
NCCNc1cccc2ccccc12 | 0.36 | 0.62 | 0.048 | 0.59 | 0.42 | 0.061 | 0.64 | 0.57 | 0.38 | > 500 | 0.51 | 0.058 | 103
CC(=O)NCCNc1cccc2ccccc12 | 1.24 | 127 | 106 | 34 | 128 | 107 | 109 | 110 | 21.5 | > 500 | 12.2 | 12.3 | 121
CN(C)CCN(C)CCN(C)CCN(C)C | 0.73 | 0.58 | 0.047 | 0.74 | 0.52 | 0.71 | 0.78 | 0.76 | 0.52 | > 500 | 0.31 | 0.053 | 11.2
O=C(NCCNCCCNCCNC(=O)C(F)(F)F)C(F)(F)F | 108 | 131 | 62 | 125 | 96 | 54 | 156 | 104 | 112 | 122 | 117 | 108 | 112
Oc1ccccc1 [PHENOL] | > 500 | > 500 | – | – | – | > 500 | – | – | – | – | – | – | –

Further lines, results first:

Ki (Carbonic anhydrase 7) [µM] | Ki (Carbonic anhydrase 13) [µM] | Ki [1] [µM] | Ki (Carbonic anhydrase 14) [µM] | Ki (Carbonic anhydrase 3) [µM] | Ki [2] [µM] | Ki (Carbonic anhydrase 6) [µM] | Ki (Carbonic anhydrase 15) [µM] | Ki (Carbonic anhydrase 12) [µM] | Ki (Carbonic anhydrase 1) [µM] | Ki (Carbonic anhydrase 9) [µM] | Ki (Carbonic anhydrase 4) [µM] | Ki (Carbonic anhydrase 2) [µM] | Structure (SMILES)
0.71 | 22.6 | 0.84 | 0.86 | 167 | 0.83 | 0.99 | 74 | 27.6 | 231 | 13.3 | – | – | NCCCNCCCCNCCCN [SPERMINE]
0.44 | 0.69 | 0.61 | 0.64 | 0.6 | 0.58 | 0.72 | 0.66 | 0.37 | 12.6 | 0.41 | 0.45 | 34.4 | NCCCCCCN
0.42 | 0.63 | 0.044 | 0.5 | 0.5 | 0.54 | 0.74 | 0.65 | 0.45 | 13.3 | – | 0.052 | 11 | NCCCCCN
107 | 179 | 125 | 85 | 112 | 103 | 104 | > 500 | 175 | > 500 | – | 104 | 107 | CC(C)(C)OC(=O)N(CCCCN(CCCNC(=O)C(F)(F)F)C(=O)OC(C)(C)C)CCCNC(=O)C(F)(F)F
1.09 | 12.6 | 1.26 | 6.7 | 11.5 | 1.05 | 1.1 | 110 | 10.2 | 136 | 11.4 | 0.116 | 11.3 | O=C(NCCCNCCCCNCCCNC(=O)C(F)(F)F)C(F)(F)F
> 500 | > 500 | 416 | > 500 | > 500 | 401 | > 500 | > 500 | > 500 | > 500 | > 500 | 309 | > 500 | CC(C)(C)OC(=O)N(CCCN(CCNC(=O)C(F)(F)F)C(=O)OC(C)(C)C)CCNC(=O)C(F)(F)F
58 | 66 | 50 | 36 | 63 | 59 | 53 | 66 | 68 | 115 | 48 | 44 | 75 | NCCNCCCNCCN
108 | 136 | 131 | 115 | 132 | 107 | 114 | 236 | 165 | 137 | 144 | 103 | 110 | CC(C)(C)OC(=O)N(CCCN)CCCCN(CCCN)C(=O)OC(C)(C)C
> 500 | > 500 | > 500 | > 500 | > 500 | > 500 | > 500 | > 500 | > 500 | > 500 | > 500 | > 500 | > 500 | CC(C)(C)OC(=O)N(CCNC(=O)C(F)(F)F)CCN(CCNC(=O)C(F)(F)F)C(=O)OC(C)(C)C
1.23 | 11.6 | 1.22 | 1 | 11.5 | 1.44 | 1.41 | 10 | 44.1 | 1.4 | 1.37 | 0.112 | 1.11 | NCCCCNCCCN [SPERMIDINE]

Reference: ChEMBL document CHEMBL1212818, “Polyamines inhibit carbonic anhydrases by anchoring to the zinc-coordinated water molecule” (J Med Chem, 2010)
